Results reported in publication PMC7845594, “Novel Immune Modulators Enhance Caenorhabditis elegans Resistance to Multiple Pathogens” (mSphere, 2021).

Key:
[1] = tested on: glp-4(bn2) worms reared on RNAi, exposed to P. aeruginosa PA14; assay: P. aeruginosa liquid killing assay after RNAi knockdown; assay type: in vivo, Caenorhabditis elegans
From the text: Based on the presence of effectors for well-known innate immune pathways in the transcriptional profiles of C. elegans exposed to LK molecules, we predicted that the compounds were acting through one or more of these pathways, despite the low levels of reporter activation. To test this, RNAi was used to knock down daf-16/FOXO, elt-2/GATA, pmk-1/p38 MAPK, atf-7/ATF7, or skn-1/Nrf2. Sterile, young adult glp-4(bn2) worms were then exposed to P. aeruginosa under liquid killing conditions in the presence of either DMSO or one of the immunostimulatory compounds.
RNAi conditions measured at different time points are represented by different graphs within the same panel. […] At least six wells, containing 20 worms each, were used per biological replicate to determine survival for each condition, and averages from at least three biological replicates are shown. *, P < 0.05; **, P < 0.01; ***, P < 0.001. P values were calculated using Student’s t test. Error bars represent standard error of the mean.
(A) Sterile, young adult glp-4(bn2) worms were reared on RNAi targeting irid-28, F38B2.4, T24B8.5, mex-5, Y105C5B.15, comt-4, or empty vector and then exposed to P. aeruginosa in the liquid killing assay. (B) Sterile, young adult glp-4(bn2) worms were reared on RNAi targeting met-2, osm-8, rde-4, oga-1, daf-2, lin-35, glp-1, dpy-10, or dpy-9 and then exposed to P. aeruginosa in the liquid killing assay. These genes were chosen using WormEXP with the criterion that gene expression after mutation would be similar (in terms of upregulation and downregulation) to exposure to LK56. Endpoints were collected at different times (to allow DMSO-treated worms to be approximately 30 to 50% dead). Assays collected at different time points are shown on different graphs. […] For each experiment, three biological replicates were performed, with each replicate comprised of six wells with 20 worms/well. Error bars represent standard error of the mean. *, P < 0.05; **, P < 0.01; ***, P < 0.001. P values were calculated using Student’s t test. Download FIG S4, PDF file, 0.2 MB.
Due to its strong rescue and unique transcriptional profile, we also created a panel of genes to test for LK56. […] This effect was specific, since mdt-15(RNAi) had no effect on the ability of LK35 or LK38 to rescue in this assay (Fig. 7B). Importantly, MDT-15 was also required for LK56-mediated rescue in E. faecalis and S. aureus pathogenesis assays (Fig. 7C).
FIG 7 Rescue from pathogens by LK56 requires […]. (A and B) Young adult glp-4(bn2) worms reared on vector or mdt-15(RNAi) were incubated with P. aeruginosa strain PA14 in the liquid killing assay with or without LK56 at 32 µM. (B) Young adult glp-4(bn2) worms reared on vector or mdt-15(RNAi) were exposed to P. aeruginosa PA14 in the liquid killing assay in the presence of LK35, LK38, or DMSO. (C) Young adult glp-4(bn2) worms reared on vector or mdt-15(RNAi) and then exposed to E. faecalis or S. aureus in liquid-based assays in the presence or absence of LK56 at 32 µM. (D) Young adult glp-4(bn2) worms reared on vector, nhr-49(RNAi), or nhr-45(RNAi) were incubated with P. aeruginosa PA14 in the liquid killing assay with or without LK56 at 32 µM. Each replicate included at least six wells, with approximately 20 worms per well. The data shown are mean values from a representative replicate. *, P < 0.05; **, P < 0.01; ***, P < 0.001. P values were calculated using Student’s t test. Error bars represent the standard error of the mean. At least three biological replicates were performed.
MDT-15 partners with at least two different nuclear hormone receptors, NHR-45 and NHR-49, to regulate gene expression.

[2] = tested on: C. elegans host defense pathway genes; assay: nanoString expression of 115 immune- and stress-responsive genes; conditions: 100 μM LK molecules, 16 h
Method: The ratio of MIC to EC was determined for each of the 69 compounds.
Analysis of the expression of 115 immune- and stress-responsive genes using nanoString technology. Download Table S1, XLSX file, 0.02 MB.
For nanoString-based (nanoString Technologies, Seattle, WA) experiments, 2,000 wild-type, young adult worms were exposed to 100 μM LK molecules or DMSO control in S Basal medium in 6-well plates for 16 h. RNA purification and gene expression analysis were performed according to nanoString guidelines. Two biological replicates were tested for each condition.

In the case of `CN(C)/N=N/c1ccc(-c2cn(Cc3ccccc3)cn2)cc1` [LK38], the “Rescue in liquid killing after RNAi of a panel of phosphatases, kinases, transcription factors and most upregulated genes” value ([1]; Fig S4A) is reported as “rescue was unchanged”, the “Rescue in liquid killing after mdt-15(RNAi)” value ([1]; P. aeruginosa PA14, LK56 at 32 µM) is reported as “no effect” and the “B0024.4 expression, induction” value [2] is reported as 3.17 fold. For the same compound, the “C02B4.2 nhr-17 expression, induction” value [2] was 1.71 fold, the “C06B3.7 expression, induction” value [2] was 1.11 fold and the “C07G3.2 irg-1 expression, induction” value [2] was 2.65 fold. For the same compound, the “C12C8.1 hsp-70 expression, induction” value [2] was 0.53 fold, the “C15F1.7 sod-1 expression, induction” value [2] was 1.43 fold and the “C29F7.2 expression, induction” value [2] was 32.57 fold. For the same compound, the “C31A11.5 oac-6 expression, induction” value [2] was 9.73 fold, the “C32D5.12 expression, induction” value [2] was 3.71 fold and the “C32H11.1 expression, induction” value [2] was 18.31 fold. The “C32H11.3 expression, induction” value [2] was 11.99 fold, the “C34G6.4 pgp-2 expression, induction” value [2] was 4.68 fold and the “C37C3.10 expression, induction” value [2] was 2.39 fold. The “C37H5.8 hsp-6 expression, induction” value [2] was 1.74 fold, the “C49G7.5 irg-2 expression, induction” value [2] was 3.91 fold and the “F08F8.5 numr-1 expression, induction” value [2] was 1.76 fold. The “F08H9.4 expression, induction” value [2] was 1.05 fold, the “F14F9.3 expression, induction” value [2] was 6.65 fold and the “F22B5.4 expression, induction” value [2] was 4.88 fold. The “F22H10.2 expression, induction” value [2] was 0.89 fold, the “F26A3.4 expression, induction” value [2] was 1.16 fold and the “F35E8.11 cdr-1 expression, induction” value [2] was 136.66 fold. The “F35G2.4 phy-2 expression, induction” value [2] was 1.91 fold, the “F37B12.2 gcs-1 expression, induction” value [2] was 1.21 fold and the “F43E2.8 hsp-4 expression, induction” value [2] was 1.31 fold. For the same compound, the “F44E5.5 expression, induction” value [2] was 0.94 fold, the “F49F1.6 expression, induction” value [2] was 3.06 fold and the “F49F1.7 expression, induction” value [2] was 27.43 fold. The “F49H6.13 expression, induction” value [2] was 1.54 fold, the “F54B8.4 expression, induction” value [2] was 5.05 fold and the “F55G11.2 expression, induction” value [2] was 2.13 fold. The “F59A7.1 clec-206 expression, induction” value [2] was 56.72 fold, the “F59B10.4 expression, induction” value [2] was 3.99 fold and the “H12D21.1 nspa-1 expression, induction” value [2] was 0.84 fold. The “H23N18.1 ugt-13 expression, induction” value [2] was 7.19 fold, the “H23N18.3 ugt-8 expression, induction” value [2] was 35.45 fold and the “K05B2.4 expression, induction” value [2] was 25.19 fold. The “K08F4.7 gst-4 expression, induction” value [2] was 1.42 fold, the “K09A9.1 nipi-3 expression, induction” value [2] was 2.18 fold and the “K10D11.2 expression, induction” value [2] was 2.89 fold. For the same compound, the “K10G4.3 expression, induction” value [2] was 3.15 fold, the “R03D7.6 gst-5 expression, induction” value [2] was 21.05 fold and the “R08H2.1 dhs-23 expression, induction” value [2] was 243.00 fold. The “R10E8.3 expression, induction” value [2] was 1.97 fold, the “T19D12.3 expression, induction” value [2] was 1.91 fold and the “T19H12.1 ugt-9 expression, induction” value [2] was 8.16 fold. The “T21E8.1 pgp-6 expression, induction” value [2] was 3.69 fold, the “T22B7.3 expression, induction” value [2] was 1.08 fold and the “T24C4.4 expression, induction” value [2] was 1.30 fold. The “T24E12.5 expression, induction” value [2] was 2.60 fold, the “T27E4.3 hsp-16.48 expression, induction” value [2] was 0.91 fold and the “T27E4.8 hsp-16.1 expression, induction” value [2] was 0.90 fold. The “T27F6.8 expression, induction” value [2] was 3.28 fold, the “T28C12.4 expression, induction” value [2] was 8.72 fold and the “W02D9.10 expression, induction” value [2] was 0.89 fold. For the same compound, the “Y22D7AL.5 hsp-60 expression, induction” value [2] was 0.89 fold, the “Y38E10A.15 nspe-7 expression, induction” value [2] was 1.82 fold and the “Y46H3A.2 hsp-16.41 expression, induction” value [2] was 0.62 fold. The “Y46H3A.3 hsp-16.2 expression, induction” value [2] was 0.79 fold, the “Y56A3A.33 expression, induction” value [2] was 1.72 fold and the “Y58A7A.5 expression, induction” value [2] was 2.03 fold. The “ZC376.7 atfs-1 expression, induction” value [2] was 2.11 fold, the “ZC443.6 ugt-16 expression, induction” value [2] was 78.74 fold and the “ZK697.6 gst-21 expression, induction” value [2] was 47.19 fold.
With `COC(=O)/C=C/C(=O)Nc1ccccc1` [LK32] the “B0024.4 expression, induction” value [2] was 2.44 fold, the “C02B4.2 nhr-17 expression, induction” value [2] was 5.68 fold and the “C06B3.7 expression, induction” value [2] was 4.23 fold. The “C07G3.2 irg-1 expression, induction” value [2] was 2.20 fold, the “C12C8.1 hsp-70 expression, induction” value [2] was 3.77 fold and the “C15F1.7 sod-1 expression, induction” value [2] was 4.46 fold. The “C29F7.2 expression, induction” value [2] was 2.80 fold, the “C31A11.5 oac-6 expression, induction” value [2] was 4.01 fold and the “C32D5.12 expression, induction” value [2] was 3.70 fold. The “C32H11.1 expression, induction” value [2] was 1.40 fold, the “C32H11.3 expression, induction” value [2] was 2.32 fold and the “C34G6.4 pgp-2 expression, induction” value [2] was 1.90 fold. The “C37C3.10 expression, induction” value [2] was 4.08 fold, the “C37H5.8 hsp-6 expression, induction” value [2] was 3.96 fold and the “C49G7.5 irg-2 expression, induction” value [2] was 4.83 fold. For the same compound, the “F08F8.5 numr-1 expression, induction” value [2] was 8.48 fold, the “F08H9.4 expression, induction” value [2] was 1.80 fold and the “F14F9.3 expression, induction” value [2] was 4.80 fold. For the same compound, the “F22B5.4 expression, induction” value [2] was 3.08 fold, the “F22H10.2 expression, induction” value [2] was 3.76 fold and the “F26A3.4 expression, induction” value [2] was 4.23 fold. For the same compound, the “F35E8.11 cdr-1 expression, induction” value [2] was 3.13 fold, the “F35G2.4 phy-2 expression, induction” value [2] was 4.53 fold and the “F37B12.2 gcs-1 expression, induction” value [2] was 7.02 fold. The “F43E2.8 hsp-4 expression, induction” value [2] was 2.75 fold, the “F44E5.5 expression, induction” value [2] was 3.34 fold and the “F49F1.6 expression, induction” value [2] was 2.28 fold. For the same compound, the “F49F1.7 expression, induction” value [2] was 2.35 fold, the “F49H6.13 expression, induction” value [2] was 6.69 fold and the “F54B8.4 expression, induction” value [2] was 2.74 fold. For the same compound, the “F55G11.2 expression, induction” value [2] was 3.21 fold, the “F59A7.1 clec-206 expression, induction” value [2] was 3.26 fold and the “F59B10.4 expression, induction” value [2] was 3.51 fold. The “H12D21.1 nspa-1 expression, induction” value [2] was 52.37 fold, the “H23N18.1 ugt-13 expression, induction” value [2] was 8.50 fold and the “H23N18.3 ugt-8 expression, induction” value [2] was 18.61 fold. For the same compound, the “K05B2.4 expression, induction” value [2] was 1.82 fold, the “K08F4.7 gst-4 expression, induction” value [2] was 18.20 fold and the “K09A9.1 nipi-3 expression, induction” value [2] was 4.75 fold. For the same compound, the “K10D11.2 expression, induction” value [2] was 2.89 fold, the “K10G4.3 expression, induction” value [2] was 2.75 fold and the “R03D7.6 gst-5 expression, induction” value [2] was 46.52 fold. The “R08H2.1 dhs-23 expression, induction” value [2] was 2.72 fold, the “R10E8.3 expression, induction” value [2] was 7.07 fold and the “T19D12.3 expression, induction” value [2] was 9.28 fold. For the same compound, the “T19H12.1 ugt-9 expression, induction” value [2] was 14.98 fold, the “T21E8.1 pgp-6 expression, induction” value [2] was 2.05 fold and the “T22B7.3 expression, induction” value [2] was 6.13 fold. The “T24C4.4 expression, induction” value [2] was 3.75 fold, the “T24E12.5 expression, induction” value [2] was 2.28 fold and the “T27E4.3 hsp-16.48 expression, induction” value [2] was 5.22 fold. For the same compound, the “T27E4.8 hsp-16.1 expression, induction” value [2] was 4.29 fold, the “T27F6.8 expression, induction” value [2] was 5.12 fold and the “T28C12.4 expression, induction” value [2] was 9.85 fold. The “W02D9.10 expression, induction” value [2] was 4.35 fold, the “Y22D7AL.5 hsp-60 expression, induction” value [2] was 4.03 fold and the “Y38E10A.15 nspe-7 expression, induction” value [2] was 2.18 fold. For the same compound, the “Y46H3A.2 hsp-16.41 expression, induction” value [2] was 4.09 fold, the “Y46H3A.3 hsp-16.2 expression, induction” value [2] was 4.04 fold and the “Y56A3A.33 expression, induction” value [2] was 4.81 fold. For the same compound, the “Y58A7A.5 expression, induction” value [2] was 8.58 fold, the “ZC376.7 atfs-1 expression, induction” value [2] was 5.61 fold and the “ZC443.6 ugt-16 expression, induction” value [2] was 3.20 fold. For the same compound, the “ZK697.6 gst-21 expression, induction” value [2] was 2.57 fold.
